# Data from patent publication US20050118290A1, “Compositions and method for treatment of steroid/nuclear receptor-mediated diseases” (University of Singapore, priority 2003, published 2005).
# How the values were obtained:
# [1] = molecular target: T1, human androgen receptor (Homo sapiens, UniProt P10275); experiment: AR (ARE)2-Luc luciferase reporter gene assay in HeLa cells; format: cell-based
# T1 construct: expressed in transfected cells; host or cells: HeLa
# T1 sequence (P10275 1-920): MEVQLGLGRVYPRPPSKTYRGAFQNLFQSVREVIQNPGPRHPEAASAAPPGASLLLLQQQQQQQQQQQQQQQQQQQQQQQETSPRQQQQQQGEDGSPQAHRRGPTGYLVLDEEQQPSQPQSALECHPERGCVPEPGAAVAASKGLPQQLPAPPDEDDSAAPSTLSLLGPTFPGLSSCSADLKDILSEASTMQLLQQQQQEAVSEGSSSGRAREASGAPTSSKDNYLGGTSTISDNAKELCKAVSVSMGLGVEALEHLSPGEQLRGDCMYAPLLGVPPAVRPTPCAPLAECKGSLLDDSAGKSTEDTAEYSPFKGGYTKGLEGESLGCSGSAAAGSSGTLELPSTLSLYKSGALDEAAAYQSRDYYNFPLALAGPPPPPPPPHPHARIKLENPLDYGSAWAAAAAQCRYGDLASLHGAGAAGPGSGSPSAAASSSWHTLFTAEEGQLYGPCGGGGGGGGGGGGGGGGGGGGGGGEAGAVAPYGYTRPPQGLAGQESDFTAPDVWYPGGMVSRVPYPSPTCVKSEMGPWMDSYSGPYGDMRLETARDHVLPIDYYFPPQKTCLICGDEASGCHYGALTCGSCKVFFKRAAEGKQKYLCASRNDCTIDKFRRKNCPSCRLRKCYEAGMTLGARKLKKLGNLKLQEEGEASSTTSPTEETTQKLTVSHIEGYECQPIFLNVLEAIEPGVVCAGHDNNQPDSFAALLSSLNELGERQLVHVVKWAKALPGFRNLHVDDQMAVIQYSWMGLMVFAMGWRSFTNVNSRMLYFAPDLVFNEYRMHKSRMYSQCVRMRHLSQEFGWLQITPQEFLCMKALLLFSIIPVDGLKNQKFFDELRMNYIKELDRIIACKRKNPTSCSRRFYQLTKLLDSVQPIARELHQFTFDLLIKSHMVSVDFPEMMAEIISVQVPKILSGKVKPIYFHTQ
# Method: (§1) The capacity of HQ extract to activate other steroid receptors, namely AR, PR, GR, ERα and ERβ was examined. […] The (ARE)2-Luc plasmid consist of two repeats of Androgen Response Element (ARE) cloned upstream of the Luciferase Reporter gene in a pGL3-Basic vector (Promega).
# (§2) AR, PR, GR and ERα and […] were determined by comparing luciferase activity in test cells with control cells exposed to vehicle (i.e., ethanol or methanol) only, analogous to the determination of PPAR activity as described in the previous examples.
# [2] = molecular target: T2, Progesterone Receptor (Homo sapiens, UniProt P06401); experiment: PR (ARE)2-Luc luciferase reporter gene assay; format: cell-based
# T2 construct: expressed in transfected cells; host or cells: HeLa (named for the formononetin and daidzein experiments)
# T2 sequence (P06401 1-933): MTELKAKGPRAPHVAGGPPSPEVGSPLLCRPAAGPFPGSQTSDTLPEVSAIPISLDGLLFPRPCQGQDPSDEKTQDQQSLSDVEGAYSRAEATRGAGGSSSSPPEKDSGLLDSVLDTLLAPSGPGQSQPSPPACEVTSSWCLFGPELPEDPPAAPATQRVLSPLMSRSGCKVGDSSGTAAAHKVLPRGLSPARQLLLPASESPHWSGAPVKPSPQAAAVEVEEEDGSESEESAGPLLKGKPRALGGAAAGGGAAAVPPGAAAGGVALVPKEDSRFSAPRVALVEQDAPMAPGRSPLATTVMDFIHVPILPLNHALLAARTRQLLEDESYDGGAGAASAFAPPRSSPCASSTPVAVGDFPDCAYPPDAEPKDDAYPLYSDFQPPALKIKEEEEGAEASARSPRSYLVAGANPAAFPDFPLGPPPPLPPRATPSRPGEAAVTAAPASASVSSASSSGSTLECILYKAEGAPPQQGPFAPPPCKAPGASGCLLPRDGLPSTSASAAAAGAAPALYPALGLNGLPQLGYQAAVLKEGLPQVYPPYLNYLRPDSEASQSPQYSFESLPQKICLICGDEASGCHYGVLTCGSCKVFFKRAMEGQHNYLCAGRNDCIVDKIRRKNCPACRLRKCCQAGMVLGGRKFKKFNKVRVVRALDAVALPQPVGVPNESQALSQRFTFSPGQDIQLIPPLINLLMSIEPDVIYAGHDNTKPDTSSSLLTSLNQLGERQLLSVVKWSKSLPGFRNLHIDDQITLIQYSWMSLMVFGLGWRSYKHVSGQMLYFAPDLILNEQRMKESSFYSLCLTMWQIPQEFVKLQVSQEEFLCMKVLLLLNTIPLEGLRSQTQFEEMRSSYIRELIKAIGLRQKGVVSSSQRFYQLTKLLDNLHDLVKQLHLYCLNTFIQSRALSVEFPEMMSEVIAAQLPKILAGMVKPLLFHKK
# Method: as §1, §2
SMILES,Luciferase activity (Fold over vehicle ± SE) AR/Dihydrotestosterone (1 × 10^−9M) ([1]; calycosin 3 ×10^−6 g/mL) [Fold],Luciferase activity (Fold over vehicle ± SE) AR/Dihydrotestosterone (1 × 10^−9M) ([1]; calycosin 10 ×10^−6 g/mL) [Fold],Luciferase activity (Fold over vehicle ± SE) AR/Dihydrotestosterone (1 × 10^−9M) ([1]; calycosin 30 ×10^−6 g/mL) [Fold],increase of the activity of maximal doses of AR agonist ([1]; with dihydrotestosterone 1×10^−9M) [fold],Luciferase activity (Fold over vehicle ± SE) PR/Progesterone (10 × 10^−6M) ([2]; calycosin 3 ×10^−6 g/mL) [Fold],Luciferase activity (Fold over vehicle ± SE) PR/Progesterone (10 × 10^−6M) ([2]; calycosin 10 ×10^−6 g/mL) [Fold],Luciferase activity (Fold over vehicle ± SE) PR/Progesterone (10 × 10^−6M) ([2]; calycosin 30 ×10^−6 g/mL) [Fold],increase of the activity of maximal doses of PR agonist ([2]; with progesterone 10×10^−6M) [fold],Luciferase activity (Fold over vehicle ± SE) AR/Dihydrotestosterone (1 × 10^−9M) ([1]; daidzein 5 ×10^−6 g/mL) [Fold],Luciferase activity (Fold over vehicle ± SE) AR/Dihydrotestosterone (1 × 10^−9M) ([1]; daidzein 10 ×10^−6 g/mL) [Fold],Luciferase activity (Fold over vehicle ± SE) AR/Dihydrotestosterone (1 × 10^−9M) ([1]; daidzein 20 ×10^−6 g/mL) [Fold],Luciferase activity (Fold over vehicle ± SE) PR/Progesterone (10 × 10^−9M) ([2]; daidzein 5 ×10^−6 g/mL) [Fold],Luciferase activity (Fold over vehicle ± SE) PR/Progesterone (10 × 10^−9M) ([2]; daidzein 10 ×10^−6 g/mL) [Fold],Luciferase activity (Fold over vehicle ± SE) PR/Progesterone (10 × 10^−9M) ([2]; daidzein 20 ×10^−6 g/mL) [Fold]
"COc1ccc(-c2coc3cc(O)ccc3c2=O)cc1O [calycosin, 3′,7-Dihydroxy-4′-methoxyisoflavone]",1997 ± 96.1,4080 ± 5.67,4502 ± 995,5.8,1077 ± 43.4,943 ± 44.0,837 ± 115,1.8,,,,,,
O=c1c(-c2ccc(O)cc2)coc2cc(O)ccc12 [daidzein],,,,,,,,,1703 ± 154,1684 ± 146,1547 ± 257,569 ± 84.0,607 ± 90.6,326 ± 65.8
